Activity calls are given as the source filed them. No cut-off for these calls is given here.
What was measured:
[1] = target: T1, Neurotensin receptor type 1 (Homo sapiens, UniProt P30989); experiment: Displacement of [3H]neurotensin from human NTS1 receptor expressed in CHOK1 cells after 60 mins by beta plate liquid scintillation counter; type: cell-based
[2] = target: T1, Neurotensin receptor type 1; experiment: Antagonist activity at human NTS1 receptor expressed in CHOK1 cells assessed as inhibition of intracellular calcium elevation pretreated 30 mins before with SR-48692 by FLIPR assay; type: functional, cell-based, CHO-K1

T1 sequence (P30989 whole entry): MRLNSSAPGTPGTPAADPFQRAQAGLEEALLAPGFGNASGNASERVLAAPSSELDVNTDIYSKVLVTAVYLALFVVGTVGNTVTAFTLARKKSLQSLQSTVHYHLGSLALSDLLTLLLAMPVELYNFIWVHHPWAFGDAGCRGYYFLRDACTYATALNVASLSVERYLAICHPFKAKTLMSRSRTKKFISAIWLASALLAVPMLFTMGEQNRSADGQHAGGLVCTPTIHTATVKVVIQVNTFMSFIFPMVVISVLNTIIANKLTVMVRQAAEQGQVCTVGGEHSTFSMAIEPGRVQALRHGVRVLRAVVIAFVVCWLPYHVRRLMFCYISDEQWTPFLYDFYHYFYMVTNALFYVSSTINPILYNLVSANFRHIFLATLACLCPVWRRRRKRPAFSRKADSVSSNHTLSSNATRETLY

Activity ([1]; CHO-K1) | IC50 [2] | Ki [1] | Compound
inactive | 3.79 nM |  | CC(C)CC(NC(=O)OCC1c2ccccc2-c2ccccc21)C(=O)O (centres undefined)
 | 3.76 nM | 545 nM | CC(C)C[C@@H](NC(=O)Cn1ccc2cc(NS(=O)(=O)c3cccc4cccnc34)ccc21)C(=O)O

From ChEMBL document CHEMBL1143436 (Bioorg Med Chem Lett, 2008)
